Experimental data: US10471088B2 (GNOSIS SPA, priority 2006, dated 2019)
Where “and” joins values, the source holds several entries; their conditions need not be identical. Equal values may be shown once.

Columns and labels:
[1] = Analysis of starting material lots (SAMe salts, NADH) prior to / after mixing with calcium oxide, t = 0 and storage at 20° C. for 21 days; assay type: physicochemical; settings: for residual moisture content: starting material; for permanent removal of the moisture content: mixture with calcium oxide stored for 21 days at 20° C.
[2] = Accelerated stability (stress test 5 days at 53° C.) of starting material lots prior to / after mixing with calcium oxide; assay type: physicochemical; settings: for % S,S (stress test) / Moisture content % K.F. (stress test) / SAMe titre % (stress test) / Total impurities % (stress test): 5 days at 53° C.; for permanent removal of the moisture content: mixture with calcium oxide after the stress test at 53° C. for 5 days
[3] = after mixing with calcium oxide
[4] = prior to mixing with calcium oxide

| Compound | residual moisture content [1] | % S,S t = 0 [1, 3] | Moisture content % K.F. t = 0 [1, 3] | SAMe titre % t = 0 [1, 3] | Total impurities % t = 0 [1, 3] | Moisture content % K.F. t = 21 days at 20° C. [1, 3] | permanent removal of the moisture content [1] | % S,S t = 0 [1, 4] | Moisture content % K.F. t = 0 [1, 4] | SAMe titre % t = 0 [1, 4] | Total impurities % t = 0 [1, 4] | Moisture content % K.F. t = 21 days at 20° C. [1, 4] | % S,S (stress test) [2, 3] | Moisture content % K.F. (stress test) [2, 3] | SAMe titre % (stress test) [2, 3] | Total impurities % (stress test) [2, 3] | permanent removal of the moisture content [2] | % S,S (stress test) [2, 4] | Moisture content % K.F. (stress test) [2, 4] | Total impurities % (stress test) [2, 4] | further results |
| --- | --- | --- | --- | --- | --- | --- | --- | --- | --- | --- | --- | --- | --- | --- | --- | --- | --- | --- | --- | --- | --- |
| C[S+](CC[C@H](N)C(=O)[O-])C[C@H]1O[C@@H](n2cnc3c(N)ncnc32)[C@H](O)[C@@H]1O (some centres unmarked) [SAMe, S-adenosyl methionine] | 1-1.5 % K.F. |  |  |  |  |  |  |  |  |  |  |  |  |  |  |  |  |  |  |  |  |
| S-adenosyl methionine-1,4-butene disulphonate |  | 84.54% and 85.25% and 84.21% and 85.02% and 83.49% | 1.80% and 1.84% and 1.94% and 1.89% and 1.87% | 50.34% and 50.08% and 50.01% and 49.78% and 50.12% | 0.57% and 0.53% and 0.49% and 0.50% | 1.38% and 1.40% and 1.33% and 1.45% and 1.27% | approximately 40% | 84.82% and 85.34% and 84.58% and 83.89% | 1.89% and 1.94% and 2.03% and 2.01% and 1.98% | 52.02% and 51.78% and 51.34% and 51.54% and 52.34% | 0.67% and 0.64% and 0.44% and 0.56% and 0.45% | 1.99% and 2.02% and 2.03% and 2.31% | 71.89% and 70.94% and 70.34% and 70.02% and 71.32% | 0.81% and 0.88% and 0.78% and 0.87% and 0.93% | 50.04% and 50.00% and 50.01% and 49.89% | 2.13% and 1.35% and 2.03% and 1.98% and 2.00% | approximately 60% | 59.49% and 58.98% and 59.43% and 60.02% and 60.32% | 1.96% and 1.93% and 2.09% and 2.21% and 2.00% | 4.63% and 4.47% and 4.06% and 4.23% and 4.05% | SAMe titre % (stress test) [2, 4]: 51.72% and 50.79% and 50.94% and 50.93% and 51.03% |
| NC(=O)C1=CN([C@@H]2O[C@H](COP(=O)(O)OP(=O)(O)OC[C@H]3O[C@@H](n4cnc5c(N)ncnc54)[C@H](O)[C@@H]3O)[C@@H](O)[C@H]2O)C=CC1 [NADH] | 5-7 % K.F. |  | 6.44% and 7.23% and 6.87% and 6.21% and 6.33% |  |  | 4.01% and 4.39% and 3.98% and 3.20% and 4.32% | approximately 40% |  | 6.66% and 7.09% and 5.94% and 6.45% and 6.38% |  |  | 6.34% and 6.87% and 5.76% and 6.32% |  | 3.23% and 3.54% and 3.10% and 3.49% and 3.45% |  | 2.67% and 3.14% and 3.02% and 2.45% and 3.54% | approximately 60% |  | 6.23% and 6.54% and 5.00% and 6.09% and 6.05% | 8.55% and 7.34% and 7.02% and 7.17% and 7.54% | NADH (sodium salt) titre % t = 0 ([1]; after mixing with 10% of calcium oxide): 83.93 (*) % and 84.23 (*) % and 83.95 (*) % and 84.53 (*) % and 85.32 (*) %; NADH (sodium salt) titre % t = 0 [1, 4]: 92.73% and 92.23% and 92.45% and 92.43% and 91.98%; NADH (sodium salt) titre % t = 0 (stress test) [2, 3]: 80.56% and 82.56% and 82.49% and 81.19% and 82.34%; NADH (sodium salt) titre % t = 0 (stress test) [2, 4]: 83.11% and 84.58% and 83.99% and 82.19% and 83.84% |
| C[S+](CC[C@H](N)C(=O)O)C[C@H]1O[C@@H](n2cnc3c(N)ncnc32)[C@H](O)[C@@H]1O.Cc1ccc(S(=O)(=O)[O-])cc1 (some centres unmarked) [S-adenosyl methionine paratoluene sulphonate] |  | 79.99% and 81.23% and 80.67% and 80.32% and 80.11% | 1.04% and 0.95% and 0.98% and 1.16% and 1.00% | 50.23% and 50.19% and 50.22% and 50.02% and 50.16% | 0.94% and 1.04% and 0.66% and 0.73% and 1.03% | 0.59% and 0.61% and 0.63% and 0.55% and 0.70% | approximately 40% | 79.82% and 81.54% and 80.87% and 80.02% and 80.21% | 1.09% and 1.04% and 1.15% and 1.08% and 1.06% | 52.23% and 52.29% and 52.96% and 51.98% and 52.76% | 0.94% and 1.04% and 0.66% and 0.73% and 1.03% | 1.09% and 1.12% and 1.13% and 1.05% and 1.03% | 65.79% and 67.25% and 66.47% and 65.43% and 66.56% | 0.35% and 0.38% and 0.43% and 0.41% and 0.39% | 49.98% and 49.87% and 50.09% and 50.00% and 49.81% | 2.89% and 3.02% and 3.17% and 2.78% and 2.65% | approximately 60% | 55.79% and 55.28% and 56.21% and 56.31% and 56.12% | 0.99% and 1.00% and 1.09% and 1.05% and 1.03% | 4.34% and 5.02% and 5.17% and 5.54% and 4.55% | SAMe titre % (stress test) [2, 4]: 49.58% and 49.99% and 51.19% and 50.84% and 50.11% |
